From US8445408B2, “Pyrimidine derivatives and their use for controlling undesired plant growth” (Bayer Cropscience AG, priority 2008, dated 2013)

What was measured:
Viola tricolor [1] = test: Post-emergence herbicidal effect; format: in vivo; details: Dosage 320 (0.32 kg active substance per hectare); treated in one-leaf stage; visual scoring after ca. 3 weeks vs untreated controls; 100% = plants have died
Protocol: (§1) [table] 2. Post-emergence herbicidal effect and crop plant compatibility Seeds of monocotyledonous or dicotyledonous weed plants or crop plants are planted in wood-fiber pots in sandy loam, covered with earth and grown in a greenhouse under good growth conditions. 2 to 3 weeks after sowing, the test plants are treated in the one-leaf stage. The compounds according to the invention, formulated in the form of wettable powders (WP) or as emulsion concentrates (EC), are then sprayed onto the green plant parts as aqueous suspension or emulsion at a water application rate of 600 to 800 I/ha (converted) with the addition of 0.2% of wetting agent. After ca. 3 weeks' standing time of the test plants in the greenhouse under optimum growth conditions, the effect of the preparations is scored visually in comparison with untreated controls (herbicidal effect in percent (%): 100% effect=plants have died, 0% effect=as control plants).

Amaranthus retroflexus [2] = test: Post-emergence herbicidal effect; format: in vivo; details: Dosage 320 (0.32 kg active substance per hectare); treated in one-leaf stage; visual scoring after ca. 3 weeks vs untreated controls; 100% = plants have died
Protocol: as §1

Veronica persica [3] = test: Post-emergence herbicidal effect; format: in vivo; details: Dosage 320 (0.32 kg active substance per hectare); treated in one-leaf stage; visual scoring after ca. 3 weeks vs untreated controls; 100% = plants have died
Protocol: as §1

Pharbitis purpurea = test: Post-emergence herbicidal effect; format: in vivo; details: Dosage 320 (0.32 kg active substance per hectare); treated in one-leaf stage; visual scoring after ca. 3 weeks vs untreated controls; 100% = plants have died
Protocol: as §1

Lolium multiflorum [4] = test: Post-emergence herbicidal effect; format: in vivo; details: Dosage 320 (0.32 kg active substance per hectare); treated in one-leaf stage; visual scoring after ca. 3 weeks vs untreated controls; 100% = plants have died
Protocol: as §1

Abutilon theophrasti = test: Post-emergence herbicidal effect; format: in vivo; details: Dosage 320 (0.32 kg active substance per hectare); treated in one-leaf stage; visual scoring after ca. 3 weeks vs untreated controls; 100% = plants have died
Protocol: as §1

Echinochloa crus-galli [5] = test: Post-emergence herbicidal effect; format: in vivo; details: Dosage 320 (0.32 kg active substance per hectare); treated in one-leaf stage; visual scoring after ca. 3 weeks vs untreated controls; 100% = plants have died
Protocol: as §1

Polygonum convolvulus [6] = test: Pre-emergence herbicidal effect; format: in vivo; details: Dosage 320 (0.32 kg active substance per hectare); visual scoring after 3 weeks vs untreated controls; 100% = plants have died
Excerpt: (§2) Seeds of monocotyledonous or dicotyledonous weed plants or crop plants are planted in wood-fiber pots in sandy loam and covered with earth. The compounds according to the invention, formulated in the form of wettable powders (WP) or as emulsion concentrates (EC), are then applied as aqueous suspension or emulsion at a water application rate of 600 to 800 I/ha (converted) with the addition of 0.2% of wetting agent to the surface of the covering earth. Following the treatment, the pots are placed in a greenhouse and kept under good growth conditions for the test plants. The visual scoring of the damage on the test plants is carried out after an experiment time of 3 weeks in comparison with untreated controls (herbicidal effect in percent (%): 100% effect=plants have died, 0% effect=as control plants). [table]

Viola tricolor [7] = test: Pre-emergence herbicidal effect; format: in vivo; details: Dosage 320 (0.32 kg active substance per hectare); visual scoring after 3 weeks vs untreated controls; 100% = plants have died
Excerpt: as §2

Amaranthus retroflexus [8] = test: Pre-emergence herbicidal effect; format: in vivo; details: Dosage 320 (0.32 kg active substance per hectare); visual scoring after 3 weeks vs untreated controls; 100% = plants have died
Excerpt: as §2

Veronica persica [9] = test: Pre-emergence herbicidal effect; format: in vivo; details: Dosage 320 (0.32 kg active substance per hectare); visual scoring after 3 weeks vs untreated controls; 100% = plants have died
Excerpt: as §2

Alopecurus myosuroides = test: Pre-emergence herbicidal effect; format: in vivo; details: Dosage 320 (0.32 kg active substance per hectare); visual scoring after 3 weeks vs untreated controls; 100% = plants have died
Excerpt: as §2

Setaria viridis [10] = test: Pre-emergence herbicidal effect; format: in vivo; details: Dosage 320 (0.32 kg active substance per hectare); visual scoring after 3 weeks vs untreated controls; 100% = plants have died
Excerpt: as §2

Matricaria inodora [11] = test: Pre-emergence herbicidal effect; format: in vivo; details: Dosage 320 (0.32 kg active substance per hectare); visual scoring after 3 weeks vs untreated controls; 100% = plants have died
Excerpt: as §2

Stellaria media [12] = test: Pre-emergence herbicidal effect; format: in vivo; details: Dosage 320 (0.32 kg active substance per hectare); visual scoring after 3 weeks vs untreated controls; 100% = plants have died
Excerpt: as §2

Echinochloa crus-galli [13] = test: Pre-emergence herbicidal effect; format: in vivo; details: Dosage 320 (0.32 kg active substance per hectare); visual scoring after 3 weeks vs untreated controls; 100% = plants have died
Excerpt: as §2

Polygonum convolvulus [14] = test: Post-emergence herbicidal effect; format: in vivo; details: Dosage 320 (0.32 kg active substance per hectare); treated in one-leaf stage; visual scoring after ca. 3 weeks vs untreated controls; 100% = plants have died
Protocol: as §1

Setaria viridis [15] = test: Post-emergence herbicidal effect; format: in vivo; details: Dosage 320 (0.32 kg active substance per hectare); treated in one-leaf stage; visual scoring after ca. 3 weeks vs untreated controls; 100% = plants have died
Protocol: as §1

Lolium multiflorum [16] = test: Pre-emergence herbicidal effect; format: in vivo; details: Dosage 320 (0.32 kg active substance per hectare); visual scoring after 3 weeks vs untreated controls; 100% = plants have died
Excerpt: as §2

Stellaria media [17] = test: Post-emergence herbicidal effect; format: in vivo; details: Dosage 320 (0.32 kg active substance per hectare); treated in one-leaf stage; visual scoring after ca. 3 weeks vs untreated controls; 100% = plants have died
Protocol: as §1

Cyperus esculentus = test: Pre-emergence herbicidal effect; format: in vivo; details: Dosage 320 (0.32 kg active substance per hectare); visual scoring after 3 weeks vs untreated controls; 100% = plants have died
Excerpt: as §2

Chenopodium album = test: Post-emergence herbicidal effect; format: in vivo; details: Dosage 320 (0.32 kg active substance per hectare); treated in one-leaf stage; visual scoring after ca. 3 weeks vs untreated controls; 100% = plants have died
Protocol: as §1

Matricaria inodora [18] = test: Post-emergence herbicidal effect; format: in vivo; details: Dosage 320 (0.32 kg active substance per hectare); treated in one-leaf stage; visual scoring after ca. 3 weeks vs untreated controls; 100% = plants have died
Protocol: as §1

[19] = logp (HCOOH), chemicophysical data; details: HCOOH (formic acid)

Row | Compound | Post-emergence herbicidal effect VIOTR (Viola tricolor [1]) [%] | Post-emergence herbicidal effect AMARE (Amaranthus retroflexus [2]) [%] | Post-emergence herbicidal effect VERPE (Veronica persica [3]) [%] | Post-emergence herbicidal effect PHBPU (Pharbitis purpurea) [%] | Post-emergence herbicidal effect ABUTH (Abutilon theophrasti) [%] | Post-emergence herbicidal effect ECHCG (Echinochloa crus-galli [5]) [%] | Pre-emergence herbicidal effect POLCO (Polygonum convolvulus [6]) [%] | Pre-emergence herbicidal effect VIOTR (Viola tricolor [7]) [%] | Pre-emergence herbicidal effect AMARE (Amaranthus retroflexus [8]) [%] | Pre-emergence herbicidal effect VERPE (Veronica persica [9]) [%] | Pre-emergence herbicidal effect ALOMY (Alopecurus myosuroides) [%] | Pre-emergence herbicidal effect SETVI (Setaria viridis [10]) [%] | Pre-emergence herbicidal effect ECHCG (Echinochloa crus-galli [13]) [%] | Pre-emergence herbicidal effect LOLMU (Lolium multiflorum [16]) [%] | also measured
1 | Nc1nc(N[C@@H]2CCc3ccccc32)cc(C(F)F)n1 [Example 1.36] | 90 | 100 | 90 | 80 | 80 | 90 |  |  |  |  |  |  |  |  | Post-emergence herbicidal effect LOLMU (Lolium multiflorum [4]): 90%
2 | Nc1nc(Cl)cc(N[C@@H]2CCc3ccccc32)n1 [Example 1.44] |  |  |  |  |  |  | 100 | 100 | 100 | 100 |  |  |  |  | 
3 | Cc1ccc2c(c1)[C@H](Nc1cc(Cl)nc(N)n1)[C@@H](C)C2 [Example 1.42] | 90 | 100 | 80 | 100 |  | 90 | 100 | 100 | 100 | 100 | 100 | 100 | 100 |  | Pre-emergence herbicidal effect MATIN (Matricaria inodora [11]): 100%; Pre-emergence herbicidal effect STEME (Stellaria media [12]): 100%; Post-emergence herbicidal effect POLCO (Polygonum convolvulus [14]): 80%; Post-emergence herbicidal effect SETVI (Setaria viridis [15]): 80%
4 | Cc1ccc2c(c1)[C@H](Nc1cc(C(F)F)nc(N)n1)[C@@H](C)C2 [Example 1.30] | 85 | 95 | 90 | 90 | 85 | 87 | 100 | 100 | 100 | 100 | 100 | 100 | 100 | 100 | Pre-emergence herbicidal effect MATIN (Matricaria inodora [11]): 100%; Pre-emergence herbicidal effect STEME (Stellaria media [12]): 100%; Post-emergence herbicidal effect SETVI (Setaria viridis [15]): 80%; Post-emergence herbicidal effect STEME (Stellaria media [17]): 80%; Post-emergence herbicidal effect LOLMU (Lolium multiflorum [4]): 80%
5 | Nc1ncc(C(F)(F)F)c(N[C@@H]2CCCc3ccccc32)n1 [Example 1.60, N4-[(1R)-1,2,3,4-tetrahydronaphthalen-1-yl]-5-(trifluoromethyl)pyrimidine-2,4-diamine] |  |  |  |  |  |  |  |  |  |  |  |  |  |  | melting point: 120 to 121 °C
6 | Nc1nc(NC2CCc3ccccc32)cc(C(F)(F)F)n1 (racemic) [Example 1.18] |  |  |  |  |  |  | 100 |  | 100 | 100 |  |  |  |  | 
7 | Cc1ccc2c(c1)C(Nc1cc(C(F)(F)F)nc(N)n1)C(C)C2 (racemic) [Example 1.31] |  | 100 | 90 |  | 90 |  | 100 |  |  |  | 100 | 100 |  | 80 | Pre-emergence herbicidal effect CYPES (Cyperus esculentus): 100%; Post-emergence herbicidal effect CHEAL (Chenopodium album): 80%; Post-emergence herbicidal effect MATIN (Matricaria inodora [18]): 90%
8 | Cc1cc(C)c2c(c1)C(Nc1cc(C(F)(F)F)nc(N)n1)CCC2 (racemic) [Example 1.17] |  |  |  |  |  |  |  |  | 100 | 100 |  |  |  |  | 
9 | N#Cc1c(N[C@@H]2CCCc3ccccc32)nc(N)nc1-c1ccccc1 [Example 1.53, 2-Amino-4-phenyl-6-[(1R)-1,2,3,4-tetrahydronaphthalen-1-ylamino]pyrimidine-5-carbonitrile] |  |  |  |  |  |  |  |  |  |  |  |  |  |  | chromatographic logP [19]: 2.87
10 | Nc1nc(N[C@@H]2CCCc3ccccc32)cc(C(F)F)n1 [Example 1.35] | 80 | 90 |  | 80 |  |  | 100 | 100 | 100 | 100 | 80 | 90 | 80 | 100 | 
11 | Cc1ccc2c(c1)[C@H](Nc1cc(C(F)(F)F)nc(N)n1)[C@@H](C)C2 [Example 1.27, N4-[(1R,2S)-2,6-dimethyl-2,3-dihydro-1H-inden-1-yl]-6-(trifluoromethyl)pyrimidine-2,4-diamine] | 85 | 100 | 85 | 85 | 90 | 85 | 100 | 100 | 100 | 100 |  | 100 | 100 | 80 | Pre-emergence herbicidal effect MATIN (Matricaria inodora [11]): 100%; Pre-emergence herbicidal effect STEME (Stellaria media [12]): 100%; chromatographic logP [19]: 2.77; Post-emergence herbicidal effect POLCO (Polygonum convolvulus [14]): 80%; Post-emergence herbicidal effect SETVI (Setaria viridis [15]): 80%
